According to US9073855B2, “BCL-2 selective apoptosis-inducing agents for the treatment of cancer and immune diseases” (AbbVie Inc., priority 2008, dated 2015):

Experiments:
[1] = target: GST-Bcl-XL (Homo sapiens, UniProt Q07817); assay: TR-FRET binding assay, GST-Bcl-XL with F-Bak peptide probe; settings: TR-FRET Binding Affinity
Summary of the method: (§1)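 Compounds were serially diluted in DMSO from a 50 μM starting solution (2× the starting concentration; 10% DMSO). Plates were incubated for 3 h at room temperature, and TR-FRET was read with 340/35 nm excitation and emission at 520/525 nm (F-Bak) and 495/510 nm (Tb antibody). Ki values were calculated using Wang's competitive-binding equation.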

[2] = target: GST-Bcl-2 (Homo sapiens, UniProt P10415); assay: TR-FRET binding assay, GST-Bcl-2 with F-Bak peptide probe; settings: for Ki: TR-FRET Binding Affinity
GST-Bcl-2, sequence (P10415 whole entry): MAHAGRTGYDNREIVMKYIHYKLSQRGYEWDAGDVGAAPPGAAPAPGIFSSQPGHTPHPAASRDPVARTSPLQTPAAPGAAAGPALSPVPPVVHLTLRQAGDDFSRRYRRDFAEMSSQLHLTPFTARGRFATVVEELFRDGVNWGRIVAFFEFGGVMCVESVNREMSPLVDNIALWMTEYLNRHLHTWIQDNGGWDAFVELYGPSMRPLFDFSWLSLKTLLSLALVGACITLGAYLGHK
Summary of the method: as §1

[3] = TR-FRET, Bcl-XL Ki divided by Bcl-2 Ki
[4] = GST-Bcl-XL, F-Bak peptide probe
[5] = ratio of TR-FRET Ki values, Bcl-XL over Bcl-2

GST-Bcl-XL, sequence (Q07817 whole entry): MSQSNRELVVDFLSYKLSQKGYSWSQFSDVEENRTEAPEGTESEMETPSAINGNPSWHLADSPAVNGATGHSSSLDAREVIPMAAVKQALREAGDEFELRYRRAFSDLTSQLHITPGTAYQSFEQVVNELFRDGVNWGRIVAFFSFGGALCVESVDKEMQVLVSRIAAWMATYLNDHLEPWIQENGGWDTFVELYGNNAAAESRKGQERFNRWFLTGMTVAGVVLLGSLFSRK

Compound | Ki [1] | Ki [2] | Binding selectivity ratio (Bcl-XL Ki/Bcl-2 Ki) [2, 3] | Ki [1, 4] | Ki ([2]; GST-Bcl-2, F-Bak peptide probe) | Binding selectivity ratio (Bcl-XL Ki/Bcl-2 Ki) [2, 5]
CC1(C)CCC(CN2CCN(c3ccc(C(=O)NS(=O)(=O)c4cnc(OCC5(O)CCC(F)(F)CC5)c(Cl)c4)c(Oc4cccc5[nH]ncc45)c3)CC2)=C(c2ccc(Cl)cc2)C1 [Example 490, N-({5-chloro-6-[(4,4-difluoro-1-hydroxycyclohexyl)methoxy]pyridin-3-yl}sulfonyl)-4-(4-{[2-(4-chlorophenyl)-4,4-dimethylcyclohex-1-en-1-yl]methyl}piperazin-1-yl)-2-(1H-indazol-4-yloxy)benzamide] | 106 nM | 1.14 nM | 92.7 |  |  | 
CC1(C)CCC(CN2CCN(c3ccc(C(=O)NS(=O)(=O)c4ccc(NC[C@H]5CC[C@H](C#N)CC5)c([N+](=O)[O-])c4)c(Oc4cccc5[nH]ncc45)c3)CC2)=C(c2ccc(Cl)cc2)C1 [Example 484, 4-(4-{[2-(4-chlorophenyl)-4,4-dimethylcyclohex-1-en-1-yl]methyl}piperazin-1-yl)-N-[(4-{[(trans-4-cyanocyclohexyl)methyl]amino}-3-nitrophenyl)sulfonyl]-2-(1H-indazol-4-yloxy)benzamide] | 34.3 nM | < 0.01 nM | >3433.9 |  |  | 
CC1(C)CCC(CN2CCN(c3ccc(C(=O)NS(=O)(=O)c4cnc(OCC5(F)CCN(C(CF)CF)CC5)c(C(F)(F)F)c4)c(Oc4cccc5[nH]ncc45)c3)CC2)=C(c2ccc(Cl)cc2)C1 [Example 459, 4-(4-{[2-(4-chlorophenyl)-4,4-dimethylcyclohex-1-en-1-yl]methyl}piperazin-1-yl)-N-{[6-({4-fluoro-1-[2-fluoro-1-(fluoromethyl)ethyl]piperidin-4-yl}methoxy)-5-(trifluoromethyl)pyridin-3-yl]sulfonyl}-2-(1H-indazol-4-yloxy)benzamide] | 5.42 nM | < 0.01 nM | 541.6 |  |  | 
CC1(C)CCC(CN2CCN(c3ccc(C(=O)NS(=O)(=O)c4ccc(NCC5CN(CC(F)F)CCO5)c([N+](=O)[O-])c4)c(Oc4cccc5[nH]cnc45)c3)CC2)=C(c2ccc(Cl)cc2)C1 (stereo not shown) [Example 415, 2-(1H-benzimidazol-4-yloxy)-4-(4-{[2-(4-chlorophenyl)-4,4-dimethylcyclohex-1-en-1-yl]methyl}piperazin-1-yl)-N-{[4-({[4-(2,2-difluoroethyl)morpholin-2-yl]methyl}amino)-3-nitrophenyl]sulfonyl}benzamide] |  |  |  | 26.9 nM | 0.002 nM | 17326.9
CC1(C)CCC(CN2CCN(c3ccc(C(=O)NS(=O)(=O)c4cnc(OCC5COCCO5)c(Cl)c4)c(Oc4cccc5[nH]ncc45)c3)CC2)=C(c2ccc(Cl)cc2)C1 (stereo not shown) [Example 488, N-{[5-chloro-6-(1,4-dioxan-2-ylmethoxy)pyridin-3-yl]sulfonyl}-4-(4-{[2-(4-chlorophenyl)-4,4-dimethylcyclohex-1-en-1-yl]methyl}piperazin-1-yl)-2-(1H-indazol-4-yloxy)benzamide] | 23.5 nM | < 0.01 nM | >2345.9 |  |  | 
CC1(C)CCC(CN2CCN(c3ccc(C(=O)NS(=O)(=O)c4ccc(NC[C@H]5CC[C@](C)(O)CC5)c([N+](=O)[O-])c4)c(Oc4cccc5[nH]ncc45)c3)CC2)=C(c2ccc(Cl)cc2)C1 [Example 525, 4-(4-{[2-(4-chlorophenyl)-4,4-dimethylcyclohex-1-en-1-yl]methyl}piperazin-1-yl)-N-[(4-{[(trans-4-hydroxy-4-methylcyclohexyl)methyl]amino}-3-nitrophenyl)sulfonyl]-2-(1H-indazol-4-yloxy)benzamide] | 19 nM | < 0.01 nM | >1898.4 |  |  | 
CC1(C)CCC(CN2CCN(c3ccc(C(=O)NS(=O)(=O)c4ccc(NCC5(N)CCOCC5)c([N+](=O)[O-])c4)c(Oc4ccc5[nH]ccc5c4)c3)CC2CO)=C(c2ccc(Cl)cc2)C1 (stereo not shown) [Example 237, N-[(4-{[(4-aminotetrahydro-2H-pyran-4-yl)methyl]amino}-3-nitrophenyl)sulfonyl]-4-[4-{[2-(4-chlorophenyl)-4,4-dimethylcyclohex-1-en-1-yl]methyl}-3-(hydroxymethyl)piperazin-1-yl]-2-(1H-indol-5-yloxy)benzamide] |  |  |  | 268 nM | 0.401 nM | 
CC1(C)CCC(CN2CCN(c3ccc(C(=O)NS(=O)(=O)c4ccc(NC5CCN(CCCF)CC5)c([N+](=O)[O-])c4)c(Oc4ccc5[nH]ccc5c4)c3)CC2)=C(c2ccc(Cl)cc2)C1 [Example 235, 4-(4-{[2-(4-chlorophenyl)-4,4-dimethylcyclohex-1-en-1-yl]methyl}piperazin-1-yl)-N-[(4-{[1-(3-fluoropropyl)piperidin-4-yl]amino}-3-nitrophenyl)sulfonyl]-2-(1H-indol-5-yloxy)benzamide] |  |  |  | 58.2 nM | 0.252 nM | 
CN(C)CC(=O)N1CCO[C@H](COc2ncc(S(=O)(=O)NC(=O)c3ccc(N4CCN(CC5=C(c6ccc(Cl)cc6)CC(C)(C)CC5)CC4)cc3Oc3cccc4[nH]cnc34)cc2Cl)C1 [Example 423, 2-(1H-benzimidazol-4-yloxy)-N-[(5-chloro-6-{[(2S)-4-(N,N-dimethylglycyl)morpholin-2-yl]methoxy}pyridin-3-yl)sulfonyl]-4-(4-{[2-(4-chlorophenyl)-4,4-dimethylcyclohex-1-en-1-yl]methyl}piperazin-1-yl)benzamide] |  |  |  | 7.57 nM | < 0.01 nM | 756.6
CN(C)CCCN(C)c1ccc(S(=O)(=O)NC(=O)c2ccc(N3CCN(Cc4ccccc4-c4ccc(Cl)cc4)CC3)cc2Oc2ccccc2)cc1[N+](=O)[O-] [Example 87, 4-{4-[(4′-chloro-1,1′-biphenyl-2-yl)methyl]piperazin-1-yl}-N-({4-[[3-(dimethylamino)propyl](methyl)amino]-3-nitrophenyl}sulfonyl)-2-phenoxybenzamide] |  |  |  | 407 nM | 0.762 nM | 
CC1(C)CCC(CN2CCN(c3ccc(C(=O)NS(=O)(=O)c4cnc(OC[C@@H]5CN(C6CC6)CCO5)c(Cl)c4)c(Oc4cccc5[nH]ncc45)c3)CC2)=C(c2ccc(Cl)cc2)C1 [Example 504, N-[(5-chloro-6-{[(2S)-4-cyclopropylmorpholin-2-yl]methoxy}pyridin-3-yl)sulfonyl]-4-(4-{[2-(4-chlorophenyl)-4,4-dimethylcyclohex-1-en-1-yl]methyl}piperazin-1-yl)-2-(1H-indazol-4-yloxy)benzamide] | 5.5 nM | < 0.01 nM | >549.9 |  |  | 
CC1(C)CCC(CN2CCN(c3ccc(C(=O)NS(=O)(=O)c4ccc(NCC5CCOCC5)c([N+](=O)[O-])c4)c(Oc4cccc5[nH]nnc45)c3)CC2)=C(c2ccc(Cl)cc2)C1 [Example 523, 2-(1H-benzotriazol-4-yloxy)-4-(4-{[2-(4-chlorophenyl)-4,4-dimethylcyclohex-1-en-1-yl]methyl}piperazin-1-yl)-N-({3-nitro-4-[(tetrahydro-2H-pyran-4-ylmethyl)amino]phenyl}sulfonyl)benzamide] | 49.4 nM | < 0.01 nM | >4944.4 |  |  | 
CC1(C)CCC(CN2CCN(c3ccc(C(=O)NS(=O)(=O)c4cnc(OCC5CCC(C)(O)CC5)c(Cl)c4)c(Oc4cccc5[nH]ncc45)c3)CC2)=C(c2ccc(Cl)cc2)C1 (stereo not drawn) [Example 494, N-({5-chloro-6-[(trans-4-hydroxy-4-methylcyclohexyl)methoxy]pyridin-3-yl}sulfonyl)-4-(4-{[2-(4-chlorophenyl)-4,4-dimethylcyclohex-1-en-1-yl]methyl}piperazin-1-yl)-2-(1H-indazol-4-yloxy)benzamide] | 15.6 nM | < 0.01 nM | >1556.6 |  |  | 
CN(C)CCNc1ccc(S(=O)(=O)NC(=O)c2ccc(N3CCN(Cc4ccccc4-c4ccc(Cl)cc4)CC3)cc2Oc2ccccc2)cc1[N+](=O)[O-] [Example 153, 4-{4-[(4′-chloro-1,1′-biphenyl-2-yl)methyl]piperazin-1-yl}-N-[(4-{[2-(dimethylamino)ethyl]amino}-3-nitrophenyl)sulfonyl]-2-phenoxybenzamide] |  |  |  | 93 nM | 0.265 nM | 
CC1(C)CCC(CN2CCN(c3ccc(C(=O)NS(=O)(=O)c4ccc(OCC5(F)CCOCC5)c(C#N)c4)c(Oc4cccc5[nH]ncc45)c3)CC2)=C(c2ccc(Cl)cc2)C1 [Example 501, 4-(4-{[2-(4-chlorophenyl)-4,4-dimethylcyclohex-1-en-1-yl]methyl}piperazin-1-yl)-N-({3-cyano-4-[(4-fluorotetrahydro-2H-pyran-4-yl)methoxy]phenyl}sulfonyl)-2-(1H-indazol-4-yloxy)benzamide] | 163 nM | 0.027 nM | 6025.7 |  |  | 
CC1(C)CCC(CN2CCN(c3ccc(C(=O)NS(=O)(=O)c4cnc(OCC5CCC(F)(F)CC5)c(Cl)c4)c(Oc4cccc5[nH]cnc45)c3)CC2)=C(c2ccc(Cl)cc2)C1 [Example 463, 2-(1H-benzimidazol-4-yloxy)-N-({5-chloro-6-[(4,4-difluorocyclohexyl)methoxy]pyridin-3-yl}sulfonyl)-4-(4-{[2-(4-chlorophenyl)-4,4-dimethylcyclohex-1-en-1-yl]methyl}piperazin-1-yl)benzamide] | 43.9 nM | 0.007 nM | 6042.9 |  |  | 
CC1(C)CCC(CN2CCN(c3ccc(C(=O)NS(=O)(=O)c4ccc(NC5CCN(CC(F)(F)F)CC5)c([N+](=O)[O-])c4)c(Oc4cccc5[nH]ccc45)c3)CC2)=C(c2ccc(Cl)cc2)C1 [Example 108, 4-(4-{[2-(4-chlorophenyl)-4,4-dimethylcyclohex-1-en-1-yl]methyl}piperazin-1-yl)-2-(1H-indol-4-yloxy)-N-[(3-nitro-4-{[1-(2,2,2-trifluoroethyl)piperidin-4-yl]amino}phenyl)sulfonyl]benzamide] |  |  |  | 59.6 nM | 2.34 nM | 
